In patent publication US5091539A, “Azolyl cycloalkanol derivatives and agricultural fungicides” (Shionogi & Co., Ltd., priority 1984, dated 1992):

What was measured:
Format in all cases: in vivo
Sphaerotheca fuliginea = test: Control test to powdery mildew of cucumber (foliar and soil treatment); details: for Protective Index, Foliar Treatment / Protective Index, Soil Treatment: 14 days; for Foliar Treatment, Curative Effect / Foliar Treatment, Protective Effect / Soil Treatment, Protective Effect: index 0-10
Description: (1) Seeds of cucumber (Cultivar: Matsukaze) were sown in a pot of 9 cm in diameter and the pots were kept in a green house until the plant was grown for 2-3 leaf stage. The first leaf was sprayed with, (i) 3 ml each of solutions containing the test compound at the prescribed concetrations and dried by the air (foliar treatment). Inoculation of spore suspension of Sphaerotheca fuliginea by spraying was practised 2 days before the treatment (curative effect) or 1 day after the treatment (protective effect). Alternatively, (ii) 5 ml of the solution was applied at the root of the seedlings (soil treatment). The pots were kept in a greenhouse for 2 days and inoculation was practised in the same manner noted above. (iii) After sprayed with 3 ml of a solution of the test compound at a concentration of 125 ppm and dried by the air, the treated pots were set in a greenhouse. Untreated pots were placed next to the treated pots. Those treated and untreated plants were inoculated with spore suspension. Protective effect of the test compounds by vapor was thus checked. The effect was examined 14 days after the inoculation of the spores.
0: Disease sign is observed on the whole leaf.
3: Disease sign is observed on the leaf in about 50%.
5: Disease sign is observed on the leaf in about 30%.
7: Disease sign is observed on the leaf in about 20%.
9: a little disease sign is observed.
(§1) (1) Test methods and evaluation are the same as those in Tests 2, 4 and 6.

Botrytis cinerea = test: Control test of Botrytis rot (gray mold) of cucumber
Description: (1) Seedlings of cucumber (Cultivar: Matsukaze) were planted in a pot of 9 cm in diameter. The first leaf was sprayed with 3 ml each of solutions containing the test compound at the concentration of 125 or 31.3 ppm and the plant was dried by the air. After inoculation of the spores of Botrytis cinerea, the plants were kept at 20°±2° C. and 90-100% humidity ((i) protective spraying). Alternatively, the spores were inoculated at first and when the leaves suffered a little (about 2 days after), the solutions of the test compounds were sprayed ((ii) curative spraying). Evaluation was practised 3 days after the inoculation. Percent disease control was calculated by the ratio of diameter of diseased area in treated and untreated plants.
as §1

Sclerotinia sclerotiorum = test: Control test to Sclerotinia rot of cucumber
Source text: (1) This test was practised in the same manner as in the above test, control test of Botrytis rot (gray mold) of cucumber, except for using the mycelium of Sclerotinia sclerotiorum as inoculm. The same as in test 2.

| SMILES | Foliar Treatment, Curative Effect (Sphaerotheca fuliginea; second Table 4, 0.5 ppm) | Foliar Treatment, Protective Effect (Sphaerotheca fuliginea; second Table 4, 0.5 ppm) | Foliar Treatment, Curative Effect (Sphaerotheca fuliginea; second Table 4, 2.0 ppm) | Foliar Treatment, Protective Effect (Sphaerotheca fuliginea; second Table 4, 2.0 ppm) | Foliar Treatment, Curative Effect (Sphaerotheca fuliginea; second Table 4, 7.8 ppm) | Foliar Treatment, Protective Effect (Sphaerotheca fuliginea; second Table 4, 7.8 ppm) | Foliar Treatment, Curative Effect (Sphaerotheca fuliginea; second Table 4, 31.3 ppm) | Foliar Treatment, Protective Effect (Sphaerotheca fuliginea; second Table 4, 31.3 ppm) | other results |
| --- | --- | --- | --- | --- | --- | --- | --- | --- | --- |
| O[C@@]1(Cc2ccc(Cl)cc2Cl)CCCC[C@H]1n1cncn1 (relative stereo) [Compound 3, cis-1-(2,4-dichlorobenzyl)-2-(1,2,4-triazol-1-yl)cyclohexanol] | – | – | – | – | – | – | – | – | Protective Index, Foliar Treatment (Sphaerotheca fuliginea; first Table 4, 125 ppm): 10; Protective Index, Soil Treatment (Sphaerotheca fuliginea; first Table 4, 125 ppm): 10 |
| O[C@@]1(Cc2ccc(Cl)cc2)CCCCC[C@H]1n1cncn1 (relative stereo) [Compound 5, cis-1-(4-chlorobenzyl)-2-(1,2,4-triazol-1-yl)cycloheptanol] | – | – | – | – | – | – | – | – | Protective Index, Foliar Treatment (Sphaerotheca fuliginea; first Table 4, 125 ppm): 10; Protective Index, Soil Treatment (Sphaerotheca fuliginea; first Table 4, 125 ppm): 3 (Disease sign is observed on the leaf in about 50%.) |
| O[C@@]1(c2cccs2)CCCC[C@H]1n1ccnc1 (relative stereo) [Compound 6, cis-1-(2-thienyl)-2-imidazolylcyclohexanol] | – | – | – | – | – | – | – | – | Protective Index, Foliar Treatment (Sphaerotheca fuliginea; first Table 4, 125 ppm): 10; Protective Index, Soil Treatment (Sphaerotheca fuliginea; first Table 4, 125 ppm): 0 |
| O[C@@]1(c2ccc(F)cc2)CCCCC[C@H]1n1ccnc1 (relative stereo) [Compound 23] | 0 | 0 | 3 (Disease sign is observed on the leaf in about 50%.) | 5 (Disease sign is observed on the leaf in about 30%.) | 10 | 10 | 10 | 10 | – |
| O[C@@]1(c2ccc(Cl)cc2)CCCC[C@H]1n1ccnc1 (relative stereo) [Compound 26] | 0 | 0 | 7 (Disease sign is observed on the leaf in about 20%.) | 3 (Disease sign is observed on the leaf in about 50%.) | 9 | 9 | 10 | 10 | – |
| O[C@@]1(c2ccc(Cl)cc2)CCCCC[C@H]1n1ccnc1 (relative stereo) [Compound 27] | 0 | 0 | 5 (Disease sign is observed on the leaf in about 30%.) | 3 (Disease sign is observed on the leaf in about 50%.) | 10 | 9 | 10 | 10 | – |
| O[C@@]1(c2ccc(F)cc2)CCCC[C@H]1n1ccnc1 (relative stereo) [Compound 29] | 0 | 0 | 3 (Disease sign is observed on the leaf in about 50%.) | 3 (Disease sign is observed on the leaf in about 50%.) | 9 | 9 | 10 | 10 | – |
| O[C@@]1(c2cccc(Cl)c2)CCCC[C@H]1n1cncn1 (relative stereo) [Compound 31] | 3 (Disease sign is observed on the leaf in about 50%.) | 0 | 9 | 0 | 10 | 9 | 10 | 10 | – |
| O[C@@]1(c2ccc(Cl)c(Cl)c2)CCCC[C@H]1n1cncn1 (relative stereo) [Compound 33] | 3 (Disease sign is observed on the leaf in about 50%.) | 0 | 10 | 5 (Disease sign is observed on the leaf in about 30%.) | 10 | 10 | 10 | 10 | Soil Treatment, Protective Effect (Sphaerotheca fuliginea; second Table 4, 0.5 ppm): 0; Soil Treatment, Protective Effect (Sphaerotheca fuliginea; second Table 4, 2.0 ppm): 0; Soil Treatment, Protective Effect (Sphaerotheca fuliginea; second Table 4, 7.8 ppm): 0; Soil Treatment, Protective Effect (Sphaerotheca fuliginea; second Table 4, 31.3 ppm): 0 |
| O[C@@]1(c2ccc(Cl)c(Cl)c2)CCCCC[C@H]1n1cncn1 (relative stereo) [Compound 34] | 5 (Disease sign is observed on the leaf in about 30%.) | 0 | 10 | 0 | 10 | 9 | 10 | 10 | Soil Treatment, Protective Effect (Sphaerotheca fuliginea; second Table 4, 0.5 ppm): 0; Soil Treatment, Protective Effect (Sphaerotheca fuliginea; second Table 4, 2.0 ppm): 0; Soil Treatment, Protective Effect (Sphaerotheca fuliginea; second Table 4, 7.8 ppm): 0; Soil Treatment, Protective Effect (Sphaerotheca fuliginea; second Table 4, 31.3 ppm): 0 |
| O[C@@]1(c2cc(Cl)ccc2Cl)CCCC[C@H]1n1cncn1 (relative stereo) [Compound 35] | 10 | 5 (Disease sign is observed on the leaf in about 30%.) | 10 | 10 | 10 | 10 | 10 | 10 | Soil Treatment, Protective Effect (Sphaerotheca fuliginea; second Table 4, 0.5 ppm): 0; Soil Treatment, Protective Effect (Sphaerotheca fuliginea; second Table 4, 2.0 ppm): 0; Soil Treatment, Protective Effect (Sphaerotheca fuliginea; second Table 4, 7.8 ppm): 9; Soil Treatment, Protective Effect (Sphaerotheca fuliginea; second Table 4, 31.3 ppm): 10 |
| Cc1ccc2nc3sc(=O)sc3nc2c1 [Chinomethionat, reference compound] | – | – | – | – | – | – | – | – | Protective Index, Foliar Treatment (Sphaerotheca fuliginea; first Table 4, 125 ppm): 10 |
| CCCCc1c(C)nc(N(C)C)nc1O [Dimethirimol, reference compound] | – | – | – | – | – | – | – | – | Protective Index, Soil Treatment (Sphaerotheca fuliginea; first Table 4, 500 ppm): 5 (Disease sign is observed on the leaf in about 30%.) |
| CC(C)NC(=O)N1CC(=O)N(c2cc(Cl)cc(Cl)c2)C1=O [Iprodione, reference compound] | – | – | – | – | – | – | – | – | Percent Disease Control, Curative Spraying (Botrytis cinerea; Table 2, 31.3 ppm): 64%; Percent Disease Control, Protective Spraying (Botrytis cinerea; Table 2, 31.3 ppm): 100%; Percent Disease Control, Curative Spraying (Botrytis cinerea; Table 2, 125 ppm): 90%; Percent Disease Control, Protective Spraying (Botrytis cinerea; Table 2, 125 ppm): 100%; Percent Disease Control, Curative Spraying (Sclerotinia sclerotiorum; 31.3 ppm): 77%; Percent Disease Control, Protective Spraying (Sclerotinia sclerotiorum; 31.3 ppm): 100%; Percent Disease Control, Curative Spraying (Sclerotinia sclerotiorum; 125 ppm): 90%; Percent Disease Control, Protective Spraying (Sclerotinia sclerotiorum; 125 ppm): 100% |
